Laboratory results from patent US8288371B2, “Ortho pyrrolidine, benzyl-substituted heterocycle CCR1 antagonists for autoimmune diseases and inflammation” (Pharmacopeia, LLC, priority 2007, dated 2012).

Each compound was assayed against T1, human CCR1 (Homo sapiens, UniProt P32246) (assay: CCR1 binding protocol (SPA, [125I]-MIP-1α displacement)). Conditions: cell membrane expressing human CCR1, 0.1 nM [125I]-MIP-1α, 4 hours at ambient temperature; read-out: Relative potency (IC50).
T1 sequence (P32246 1-355): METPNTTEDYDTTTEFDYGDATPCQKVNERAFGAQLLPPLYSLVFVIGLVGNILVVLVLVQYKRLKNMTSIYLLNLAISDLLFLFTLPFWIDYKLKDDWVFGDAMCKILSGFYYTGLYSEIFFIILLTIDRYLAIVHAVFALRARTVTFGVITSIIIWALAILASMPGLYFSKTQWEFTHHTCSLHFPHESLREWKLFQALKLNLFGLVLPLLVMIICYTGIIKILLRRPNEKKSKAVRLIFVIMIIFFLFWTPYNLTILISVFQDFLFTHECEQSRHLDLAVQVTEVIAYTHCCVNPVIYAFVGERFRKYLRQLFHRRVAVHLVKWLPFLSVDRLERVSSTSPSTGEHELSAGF
Summary of the method: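 Human CCR1 membranes (0.5 μg/well) on SPA beads were incubated with compound and 0.1 nM [125I]-MIP-1α (final) for 4 h at ambient temperature. Buffer was Tris pH 7.4 with NaCl, KCl, MnCl and 0.1% BSA. IC50 came from ½-log compound dilutions (10 mM top DMSO stock) by displacement of bound radioligand.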

IC50 | SMILES
< 50 nM | Cc1ccc(C(=O)N(C)C)cc1NC(=O)N1CCC[C@@H]1c1nnc(C)n1Cc1ccc(Cl)cc1 [Compound 208]
< 50 nM | CCc1nnc([C@H]2CCCN2C(=O)N[C@H]2CCOc3cc(C(F)(F)F)ccc32)n1Cc1ccc(Cl)cc1 [Compound 209]
< 50 nM | CNC(=O)c1cc(C)cc(C)c1NC(=O)N1CCC[C@@H]1c1nnc(C)n1Cc1ccc(Cl)cc1 [Compound 210]
< 50 nM | COC(=O)c1cc(C)cc(C)c1NC(=O)N1CCC[C@@H]1c1nnc(C)n1Cc1ccc(Cl)cc1 [Compound 211]
< 50 nM | CNC(=O)c1cccc(C)c1NC(=O)N1CCC[C@@H]1c1nnc(C)n1Cc1ccc(Cl)cc1 [Compound 212]
< 50 nM | Cc1nnc([C@H]2CCCN2C(=O)N[C@H](C)c2ccccc2)n1Cc1ccc(Cl)cc1 [Compound 213]
< 50 nM | CC[C@H](NC(=O)N1CCC[C@@H]1c1nnc(C)n1Cc1ccc(Cl)cc1)c1c(C)noc1C [Compound 214]
< 50 nM | COC(=O)c1ccc(NC(=O)N2CCC[C@@H]2c2nnc(C)n2Cc2ccc(Cl)cc2)c(C)c1 [Compound 215]
< 50 nM | CNC(=O)c1ccc(C)c(NC(=O)N2CCC[C@@H]2c2nnc(C)n2Cc2ccc(Cl)cc2)c1 [Compound 216]
< 50 nM | COC(=O)c1cccc(C)c1NC(=O)N1CCC[C@@H]1c1nnc(C)n1Cc1ccc(Cl)cc1 [Compound 217]
< 50 nM | Cc1nnc([C@H]2CCCN2C(=O)N[C@@H](C)c2ccc(F)cc2)n1Cc1ccc(Cl)cc1 [Compound 218]
< 50 nM | Cc1cccc(C(N)=O)c1NC(=O)N1CCC[C@@H]1c1nnc(C)n1Cc1ccc(Cl)cc1 [Compound 219]
< 50 nM | Cc1nnc([C@H]2CCCN2C(=O)NC(C)(C)c2ccc(C(F)(F)F)cc2)n1Cc1ccc(Cl)cc1 [Compound 220]
50 to 500 nM | Cc1nnc([C@H]2CCCN2C(=O)NCc2ccc(C(F)(F)F)nc2)n1Cc1ccc(Cl)cc1 [Compound 221]
50 to 500 nM | Cc1onc(-c2ccccc2)c1N/C(=N/C#N)N1CCC[C@@H]1c1nnc(C)n1Cc1ccc(Cl)cc1 [Compound 222]
50 to 500 nM | Cc1ncccc1NC(=O)N1CCC[C@@H]1c1nnc(C)n1Cc1ccc(Cl)cc1 [Compound 223]
50 to 500 nM | Cc1nnc([C@H]2CCCN2C(=O)NCc2ccccc2)n1Cc1ccc(Cl)cc1 [Compound 224]
50 to 500 nM | Cc1ccncc1NC(=O)N1CCC[C@@H]1c1nnc(C)n1Cc1ccc(Cl)cc1 [Compound 225]
50 to 500 nM | Cc1noc(-c2ccccc2)c1NC(=O)N1CCC[C@@H]1c1nnc(C(F)(F)F)n1Cc1ccc(Cl)cc1 [Compound 226]
50 to 500 nM | Cc1nnc([C@H]2CCCN2C(=O)N[C@@H](C)c2ccccc2)n1Cc1ccc(Cl)cc1 [Compound 227]
50 to 500 nM | Cc1nnc([C@H]2CCCN2C(=O)NCc2ccc(F)cc2)n1Cc1ccc(Cl)cc1 [Compound 228]
50 to 500 nM | Cc1ccc(C(N)=O)cc1NC(=O)N1CCC[C@@H]1c1nnc(C)n1Cc1ccc(Cl)cc1 [Compound 229]
50 to 500 nM | CNC(=O)c1cccc(NC(=O)N2CCC[C@@H]2c2nnc(C)n2Cc2ccc(Cl)cc2)c1C [Compound 231]

IC50 | SMILES
50 to 500 nM | CC(=O)N1CCC[C@H](NC(=O)N2CCC[C@@H]2c2nnc(C)n2Cc2ccc(Cl)cc2)C1 [Compound 232]
50 to 500 nM | Cc1cccc(C(=O)N(C)C)c1NC(=O)N1CCC[C@@H]1c1nnc(C)n1Cc1ccc(Cl)cc1 [Compound 233]
50 to 500 nM | CNC(=O)c1ccc(NC(=O)N2CCC[C@@H]2c2nnc(C)n2Cc2ccc(Cl)cc2)c(C)c1 [Compound 234]
50 to 500 nM | O=C(N[C@H]1CCOc2cc(C(F)(F)F)ccc21)N1CCC[C@@H]1c1nnc(C(F)(F)F)n1Cc1ccc(Cl)cc1 [Compound 235]
50 to 500 nM | Cc1cc(C(=O)N(C)C)ccc1NC(=O)N1CCC[C@@H]1c1nnc(C)n1Cc1ccc(Cl)cc1 [Compound 236]
50 to 500 nM | Cc1nnc([C@H]2CCCN2C(=O)Nc2ccncc2)n1Cc1ccc(Cl)cc1 [Compound 237]
50 to 500 nM | Cc1c(NC(=O)N2CCC[C@@H]2c2nnc(C)n2Cc2ccc(Cl)cc2)cccc1C(=O)N(C)C [Compound 238]
50 to 500 nM | Cc1cc(C)c(NC(=O)N2CCC[C@@H]2c2nnc(C)n2Cc2ccc(Cl)cc2)c(C(=O)N(C)C)c1 [Compound 239]
50 to 500 nM | Cc1cc(C(=O)O)ccc1NC(=O)N1CCC[C@@H]1c1nnc(C)n1Cc1ccc(Cl)cc1 [Compound 240]
50 to 500 nM | Cc1ccc(C(=O)O)cc1NC(=O)N1CCC[C@@H]1c1nnc(C)n1Cc1ccc(Cl)cc1 [Compound 241]
50 to 500 nM | Cc1c(NC(=O)N2CCC[C@@H]2c2nnc(C)n2Cc2ccc(Cl)cc2)cccc1C(=O)O [Compound 242]
50 to 500 nM | Cc1nnc([C@H]2CCCN2C(=O)Nc2ccc(Cl)cn2)n1Cc1ccc(Cl)cc1 [Compound 243]
50 to 500 nM | Cc1ccc(NC(=O)N2CCC[C@@H]2c2nnc(C)n2Cc2ccc(Cl)cc2)c(C(N)=O)c1 [Compound 244]
500 to 5000 nM | Cc1nnc([C@H]2CCCN2C(=O)Nc2cccnc2)n1Cc1ccc(Cl)cc1 [Compound 245]
500 to 5000 nM | Cc1nnc([C@H]2CCCN2C(=O)NC2CCCC2)n1Cc1ccc(Cl)cc1 [Compound 246]
500 to 5000 nM | Cc1c(NC(=O)N2CCC[C@@H]2c2nnc(C)n2Cc2ccc(Cl)cc2)cccc1C(N)=O [Compound 247]
500 to 5000 nM | COC(=O)c1cc(C)ccc1NC(=O)N1CCC[C@@H]1c1nnc(C)n1Cc1ccc(Cl)cc1 [Compound 248]
500 to 5000 nM | O=C(NCc1ccc(C(F)(F)F)cc1)N1CCC[C@@H]1c1nnc(C(F)(F)F)n1Cc1ccc(Cl)cc1 [Compound 249]
500 to 5000 nM | Cc1nnc([C@H]2CCCN2C(=O)Nc2cncnc2)n1Cc1ccc(Cl)cc1 [Compound 250]
500 to 5000 nM | Cc1cccc(C(=O)O)c1NC(=O)N1CCC[C@@H]1c1nnc(C)n1Cc1ccc(Cl)cc1 [Compound 251]
500 to 5000 nM | Cc1nnc([C@H]2CCCN2C(=O)NC(C)C)n1Cc1ccc(Cl)cc1 [Compound 252]
500 to 5000 nM | Cc1nnc([C@H]2CCCN2C(=O)Nc2ccccn2)n1Cc1ccc(Cl)cc1 [Compound 253]
500 to 5000 nM | Cc1cc(C)c(NC(=O)N2CCC[C@@H]2c2nnc(C)n2Cc2ccc(Cl)cc2)c(C(=O)O)c1 [Compound 254]

IC50 | SMILES
500 to 5000 nM | CSc1nc(Cl)cc(NC(=O)N2CCC[C@@H]2c2nnc(C)n2Cc2ccc(Cl)cc2)n1 [Compound 255]
500 to 5000 nM | Cc1cc(NC(=O)N2CCC[C@@H]2c2nnc(C)n2Cc2ccc(Cl)cc2)nc(C)n1 [Compound 256]
500 to 5000 nM | Cc1nnc([C@H]2CCCN2C(=C[N+](=O)[O-])Nc2ccc(C(F)(F)F)cc2)n1Cc1ccc(Cl)cc1 [Compound 257]
500 to 5000 nM | Cc1nnc([C@H]2CCCN2C(=O)Nc2ccncn2)n1Cc1ccc(Cl)cc1 [Compound 258]
< 50 nM | Cc1noc(C)c1NC(=O)N1CCC[C@@H]1c1nnc(Cl)n1Cc1ccc(Cl)cc1 [Compound 259]
50 to 500 nM | Cc1nnc([C@H]2CCCN2/C(=N\C#N)N[C@H]2CCOc3cc(C(F)(F)F)ccc32)n1Cc1ccc(Cl)cc1 [Compound 260]
50 to 500 nM | Cc1nnc([C@H]2CCCN2C(=O)N[C@H]2CCCOc3ccccc32)n1Cc1ccc(Cl)cc1 [Compound 261]
500 to 5000 nM | Cc1nnc([C@H]2CCCN2C(=O)N[C@@H]2CC(C)(C)Oc3cc(C(F)(F)F)ccc32)n1Cc1ccc(Cl)cc1 [Compound 262]
< 50 nM | Cc1nnc([C@H]2CCCN2C(=O)NC2(c3ccc(C(F)(F)F)cc3)CC2)n1Cc1ccc(Cl)cc1 [Compound 263]
500 to 5000 nM | Cc1nnc([C@H]2CCCN2C(=O)NC2(c3ccccc3C(F)(F)F)CC2)n1Cc1ccc(Cl)cc1 [Compound 264]
< 50 nM | Cc1nnc([C@H]2CCCN2C(=O)NC2(c3cccc(C(F)(F)F)c3)CC2)n1Cc1ccc(Cl)cc1 [Compound 265]
< 50 nM | Cc1nnc([C@H]2CCCN2C(=O)NC2(c3cccc(F)c3)CC2)n1Cc1ccc(Cl)cc1 [Compound 266]
50 to 500 nM | Cc1nnc([C@H]2CCCN2C(=O)NC2CCCc3cccc(Cl)c32)n1Cc1ccc(Cl)cc1 (stereo partly drawn) [Compound 267]
< 50 nM | Cc1nnc([C@H]2CCCN2C(=O)N[C@H]2CC(C)(C)Oc3cc(C(F)(F)F)ccc32)n1Cc1ccc(Cl)cc1 [Compound 268]
50 to 500 nM | Cc1ccc2c(c1)CCCC2NC(=O)N1CCC[C@@H]1c1nnc(C)n1Cc1ccc(Cl)cc1 (stereo partly drawn) [Compound 269]
< 50 nM | Cc1nnc([C@H]2CCCN2C(=O)NC2(c3ccc(F)cc3)CC2)n1Cc1ccc(Cl)cc1 [Compound 270]
< 50 nM | Cc1nnc([C@H]2CCCN2C(=O)NC2(c3ccc(Cl)cc3)CC2)n1Cc1ccc(Cl)cc1 [Compound 271]
50 to 500 nM | Cc1nnc([C@H]2CCCN2C(=O)NC2CC(C)(C)Oc3cc(C(F)(F)F)ccc32)n1Cc1ccc(Cl)cc1 (stereo partly drawn) [Compound 272]
< 50 nM | Cc1nnc([C@H]2CCCN2C(=O)NC2(c3ccccc3F)CC2)n1Cc1ccc(Cl)cc1 [Compound 273]
50 to 500 nM | Cc1nnc([C@H]2CCCN2C(=O)Nc2ccc3c(c2)CC(C)O3)n1Cc1ccc(Cl)cc1 (stereo partly drawn) [Compound 274]
< 50 nM | Cc1nnc([C@H]2CCCN2C(=O)NC(C)(C)c2ccc(F)cc2)n1Cc1ccc(Cl)cc1 [Compound 275]
< 50 nM | Cc1onc(-c2ccccc2Cl)c1NC(=O)N1CCC[C@@H]1c1nnc(C)n1Cc1ccc(Cl)cc1 [Compound 276]
50 to 500 nM | Cc1nnc([C@H]2CCCN2C(=O)Nc2ccc(C(F)(F)F)cn2)n1Cc1ccc(Cl)cc1 [Compound 277]
